Calls of active or inactive are those of the source. How the calls were made is not given here.
Tested on: M. tuberculosis H37Rv growth inhibition with meropenem
Experiment: dose response, H37Rv, with and without meropenem (AID 434987);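 further: growth over 7 days at 37 °C before Alamar Blue read on day 9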
[1] = M. tuberculosis H37Rv growth inhibition, measured here: IC50 without meropenem
[2] = M. tuberculosis H37Rv growth inhibition, measured here: IC90 without meropenem
[3] = measured here: IC90 with meropenem

C/C(CC(=O)NCc1ccco1)=N\NC(=O)CC#N
IC50: 4.68 µM | IC50 [1]: 43.3 µM | IC90 [2]: > 100 µM | IC90 [3]: 17.6 µM

N=C1C(c2nc(-c3ccc(Cl)cc3)cs2)=C(O)CN1CCCN1CCOCC1
IC50: > 100 µM (inactive) | IC50 [1]: > 100 µM | IC90 [2]: > 100 µM | IC90 [3]: > 100 µM

COc1ccc(-c2cc(-c3ccc(OC)cc3)nc(-c3ccc4c(c3)NC(=O)CO4)c2)cc1
IC50: > 100 µM (inactive) | IC50 [1]: > 100 µM | IC90 [2]: > 100 µM | IC90 [3]: > 100 µM

COc1ccc(C2C(C#N)=C(SCC(=O)Nc3ccc(C)cc3)NC3=C2C(=O)CC(C)(C)C3)cc1 (stereo unspecified)
IC50: 94.3 µM (inactive) | IC50 [1]: > 100 µM | IC90 [2]: > 100 µM | IC90 [3]: > 100 µM

Cc1cccc2nc(COc3ccc4ccccc4c3Br)cn12
IC50: 49 µM (inactive) | IC50 [1]: 47.5 µM | IC90 [2]: > 100 µM | IC90 [3]: > 100 µM

CCn1c2ccccc2c2cc(NC(=O)c3cccc(OC)c3OC)ccc21
IC50: > 100 µM (inactive) | IC50 [1]: > 100 µM | IC90 [2]: > 100 µM | IC90 [3]: > 100 µM

CCc1cc2c(Sc3nc4ccccc4s3)ncnc2s1
IC50: 50.6 µM (inactive) | IC50 [1]: 90.1 µM | IC90 [2]: > 100 µM | IC90 [3]: > 100 µM

COc1cccc(/C=N/NC(=O)CSCC(=O)Nc2ccccc2)c1O
IC50: 5.41 µM | IC50 [1]: > 100 µM | IC90 [2]: > 100 µM | IC90 [3]: > 100 µM

COc1ccccc1N1CCN(/N=C/c2cccc(OC)c2OC)CC1
IC50: > 100 µM (inactive) | IC50 [1]: > 100 µM | IC90 [2]: > 100 µM | IC90 [3]: > 100 µM

CCNC(=S)N/N=C1\C(=O)c2cccc3cccc1c23
IC50: 5.46 µM | IC50 [1]: > 100 µM | IC90 [2]: > 100 µM | IC90 [3]: 7.61 µM

CCOC(=O)c1nn(-c2ccc(Cl)cc2)cc1O
IC50: > 100 µM (inactive) | IC50 [1]: > 100 µM | IC90 [2]: > 100 µM | IC90 [3]: > 100 µM

O=C(Cn1c(=O)n(CCCC(=O)NC2CCCC2)c(=O)c2ccccc21)NCCC1=CCCCC1
IC50: > 100 µM (inactive) | IC50 [1]: > 100 µM | IC90 [2]: > 100 µM | IC90 [3]: > 100 µM

O=C(Nc1ccc([N+](=O)[O-])cc1)c1cc2ccccc2nc1Cl
IC50: > 100 µM (inactive) | IC50 [1]: > 100 µM | IC90 [2]: > 100 µM | IC90 [3]: > 100 µM

CCn1c(=O)c2cc(C(=O)N(C)c3ccccc3F)sc2c2ccccc21
IC50: 29.2 µM | IC50 [1]: > 100 µM | IC90 [2]: > 100 µM | IC90 [3]: > 100 µM

O=C(CCS(=O)(=O)c1ccccc1)N(CCCN1CCOCC1)c1nc2c(F)cccc2s1
IC50: 11.3 µM | IC50 [1]: > 100 µM | IC90 [2]: > 100 µM | IC90 [3]: > 25 µM

O=C(/C=C/c1cccnc1)c1ccc(O)cc1
IC50: 19.8 µM (inactive) | IC50 [1]: 34.2 µM | IC90 [2]: 46.9 µM | IC90 [3]: 50.4 µM

C/C(=N\OCC(=O)Nc1nc2ccccc2s1)c1ccccc1
IC50: 13.1 µM | IC50 [1]: 47.6 µM | IC90 [2]: 54.1 µM | IC90 [3]: 35.6 µM

Cc1c(C=O)c(C=O)c(C)n1Cc1ccccc1
IC50: 31.9 µM (inactive) | IC50 [1]: 52 µM | IC90 [2]: > 100 µM | IC90 [3]: 69.3 µM

CC1CC2(CCCCC2)Nc2ccc3ccccc3c21 (stereo unspecified)
IC50: 49.1 µM (inactive) | IC50 [1]: 86.1 µM | IC90 [2]: 96 µM | IC90 [3]: > 100 µM

CCOC(=O)CSc1nnc(CNC(=O)c2cccs2)n1CCc1ccccc1
IC50: 20.1 µM (inactive) | IC50 [1]: 35.2 µM | IC90 [2]: 55.8 µM | IC90 [3]: 49.5 µM

COc1ccc([C@H]2CC(=O)C=C(/C=C/c3ccccc3)C2)cc1OC
IC50: > 100 µM (inactive) | IC50 [1]: > 100 µM | IC90 [2]: > 100 µM | IC90 [3]: > 100 µM

O=C(/C=C/c1ccccc1)NC1CC2CCC1C2 (stereo unspecified)
IC50: > 100 µM (inactive) | IC50 [1]: > 100 µM | IC90 [2]: > 100 µM | IC90 [3]: > 100 µM

Cc1cccc(OCc2nc(-c3ccccn3)n[nH]2)c1
IC50: 3.43 µM | IC50 [1]: 22.5 µM | IC90 [2]: 25.6 µM | IC90 [3]: 7.37 µM

CN(C)c1ccc(/C=N/NC(=O)c2cc(-c3ccc4c(c3)OCO4)n[nH]2)cc1
IC50: > 100 µM (inactive) | IC50 [1]: > 100 µM | IC90 [2]: > 100 µM | IC90 [3]: > 100 µM

Cc1onc(-c2ccccc2)c1C(=O)Nc1ccc(-c2nnc3n2CCCCC3)cc1
IC50: 23.8 µM (inactive) | IC50 [1]: 29.3 µM | IC90 [2]: 71.2 µM | IC90 [3]: 38.6 µM

Cn1cccc1/C=C1/C(=O)NC(=O)N(Cc2ccc(F)cc2)C1=O
IC50: 23.7 µM (inactive) | IC50 [1]: 46.2 µM | IC90 [2]: > 50 µM | IC90 [3]: > 50 µM

CSc1ccccc1C(=O)Nc1ccc2c(c1)OCCO2
IC50: 35.4 µM (inactive) | IC50 [1]: 80.5 µM | IC90 [2]: > 100 µM | IC90 [3]: > 100 µM

O=S(=O)(Nc1ccccc1)c1ccc2c(c1)CCO2
IC50: > 100 µM (inactive) | IC50 [1]: > 100 µM | IC90 [2]: > 100 µM | IC90 [3]: > 100 µM

O=C(Nc1ccccc1-c1ccccc1)C12CC3CC(CC(C3)C1)C2
IC50: > 100 µM (inactive) | IC50 [1]: > 100 µM | IC90 [2]: > 100 µM | IC90 [3]: > 100 µM

Cc1ccc(OCC(=O)Nc2ccc(-c3nc4ncccc4o3)cc2)c(C)c1
IC50: > 100 µM (inactive) | IC50 [1]: > 100 µM | IC90 [2]: > 100 µM | IC90 [3]: > 100 µM

CCOc1cc(C(=O)N2CCC(CC3CC(c4ccccc4)=NO3)(C(=O)NCc3ccc(OC)cc3)CC2)cc(OCC)c1OCC (stereo unspecified)
IC50: > 100 µM (inactive) | IC50 [1]: > 100 µM | IC90 [2]: > 100 µM | IC90 [3]: > 100 µM

CCN(CC)C(=O)CSc1nnc2nnc3cc(OC)ccc3n12
IC50: 12 µM (inactive) | IC50 [1]: 27.7 µM | IC90 [2]: 51.7 µM | IC90 [3]: 13.4 µM

CCCC(C)NC(=O)c1ccc(OCc2ccc(Cl)cc2)c(OC)c1 (stereo unspecified)
IC50: 7.56 µM | IC50 [1]: 36.2 µM | IC90 [2]: > 100 µM | IC90 [3]: 11.6 µM

CC(=O)COc1ccc2c3c(c(=O)oc2c1C)CCCCC3
IC50: > 100 µM (inactive) | IC50 [1]: > 100 µM | IC90 [2]: > 100 µM | IC90 [3]: > 100 µM

COC(=O)c1ccc(/C=N/NC(=O)c2cccc(F)c2)cc1
IC50: > 100 µM (inactive) | IC50 [1]: > 100 µM | IC90 [2]: > 100 µM | IC90 [3]: > 100 µM

O=S1(=O)CCO[C@H]2Cc3ccccc3[C@H]2N1Cc1ccccc1
IC50: > 100 µM (inactive) | IC50 [1]: > 100 µM | IC90 [2]: > 100 µM | IC90 [3]: > 100 µM

N#Cc1c(-c2cccs2)cc(-c2ccccn2)nc1N
IC50: 6.92 µM | IC50 [1]: > 100 µM | IC90 [2]: > 100 µM | IC90 [3]: > 100 µM

COc1ccccc1CNC(=O)c1ccc(SC)cc1OC
IC50: 49.8 µM (inactive) | IC50 [1]: 83.5 µM | IC90 [2]: > 100 µM | IC90 [3]: > 100 µM

COCCCNc1nc(SCc2ccccc2)nc2sc3c(c12)CCC3
IC50: 97.3 µM (inactive) | IC50 [1]: > 100 µM | IC90 [2]: > 100 µM | IC90 [3]: > 100 µM

COc1ccc(-c2csc(NC(CO)c3nc4ccccc4n3Cc3ccc(C)cc3)n2)cc1 (stereo unspecified)
IC50: 25 µM (inactive) | IC50 [1]: 48.4 µM | IC90 [2]: 57.2 µM | IC90 [3]: 26.4 µM

Cc1nnc(SCc2cccc(Cl)c2)n(N)c1=O
IC50: 4.43 µM | IC50 [1]: 12 µM | IC90 [2]: 18.1 µM | IC90 [3]: 10.1 µM

CCCCNC(=O)c1onc(CSc2ccccc2C)c1C(=O)O
IC50: 45.3 µM (inactive) | IC50 [1]: 81.1 µM | IC90 [2]: > 100 µM | IC90 [3]: 50.6 µM

NS(=O)(=O)c1ccc(Sc2nc3ccccc3s2)c([N+](=O)[O-])c1
IC50: > 100 µM (inactive) | IC50 [1]: > 100 µM | IC90 [2]: > 100 µM | IC90 [3]: > 100 µM

CCO[C@H]1OC(C(=O)NCc2nc3ccccc3[nH]2)=C[C@@H](c2ccc(C(F)(F)F)cc2)[C@@H]1CCCO
IC50: > 100 µM (inactive) | IC50 [1]: > 100 µM | IC90 [2]: > 100 µM | IC90 [3]: > 100 µM

COc1ccc(C(=O)Nc2nc3ccccc3s2)c(OC)c1
IC50: > 100 µM (inactive) | IC50 [1]: > 100 µM | IC90 [2]: > 100 µM | IC90 [3]: > 100 µM

c1ccc2c(c1)CC1CNCc3cccc(c31)S2 (stereo unspecified)
IC50: 47.4 µM (inactive) | IC50 [1]: > 100 µM | IC90 [2]: > 100 µM | IC90 [3]: > 100 µM

COc1ccc2[nH]c3c(c2c1)CCN=C3C
IC50: > 100 µM (inactive) | IC50 [1]: > 100 µM | IC90 [2]: > 100 µM | IC90 [3]: > 100 µM

CCCc1cc(C(=O)Nc2ccc(C(C)=O)cc2)no1
IC50: 11.7 µM (inactive) | IC50 [1]: 24.4 µM | IC90 [2]: > 100 µM | IC90 [3]: 48.8 µM

Cc1ccc(C)c(NC(=O)C(Sc2nc3ccccc3c(=O)n2CC(C)C)c2ccccc2)c1 (stereo unspecified)
IC50: 58.8 µM (inactive) | IC50 [1]: > 100 µM | IC90 [2]: > 100 µM | IC90 [3]: > 100 µM

c1ccc(-c2cc(N3CCOCC3)nc3ccccc23)cc1
IC50: 2.78 µM | IC50 [1]: > 100 µM | IC90 [2]: > 100 µM | IC90 [3]: 91.5 µM

O=C1OC(/C=C/c2ccc(Cl)cc2Cl)=NC/1=C\c1cccs1
IC50: 4.04 µM | IC50 [1]: 14.7 µM | IC90 [2]: 60.1 µM | IC90 [3]: 33.4 µM

CC(=O)Nc1ccc(C(=O)N(C2=NC(C)CS2)c2ccc(Cl)cc2)cc1 (stereo unspecified)
IC50: 29.8 µM (inactive) | IC50 [1]: 44.1 µM | IC90 [2]: > 100 µM | IC90 [3]: > 100 µM

CCOCC(=O)Nc1cc(C(F)(F)F)ccc1Oc1cccc(Br)c1
IC50: 56.9 µM (inactive) | IC50 [1]: > 100 µM | IC90 [2]: > 100 µM | IC90 [3]: > 100 µM

O=c1oc(-c2cccs2)nc2sc3c(c12)CCC3
IC50: 93 µM (inactive) | IC50 [1]: > 100 µM | IC90 [2]: > 100 µM | IC90 [3]: > 100 µM

COc1ccc(C(=O)Nc2nc3ccc(OC)cc3s2)cc1
IC50: 21.2 µM | IC50 [1]: 65.1 µM | IC90 [2]: > 100 µM | IC90 [3]: > 100 µM

O=C(/C=C/c1ccccc1[N+](=O)[O-])c1ccc(F)cc1
IC50: 19.8 µM | IC50 [1]: 94.1 µM | IC90 [2]: > 100 µM | IC90 [3]: > 100 µM

CCCC(=O)Nc1ccc(NC(=S)NC(=O)c2cccs2)cc1
IC50: > 100 µM (inactive) | IC50 [1]: > 100 µM | IC90 [2]: > 100 µM | IC90 [3]: > 100 µM

C=CCc1cc(Cl)ccc1OCCCNC(C)CC (stereo unspecified)
IC50: 38.2 µM (inactive) | IC50 [1]: 49.2 µM | IC90 [2]: 55.1 µM | IC90 [3]: 51.3 µM

COC(=O)c1cccc(NC(=S)NCCC2=CCCCC2)c1
IC50: > 100 µM (inactive) | IC50 [1]: > 100 µM | IC90 [2]: > 100 µM | IC90 [3]: > 100 µM
